This series can be described thus: water solubility of complex carbohydrate agents. Format: physicochemical. As for the experimental part:
Specific solubilities are: dextran, 50 mg/ml; hydroxymethylcellulose, 10 mg/ml; cellulose, 0 mg/ml; oat beta glucan, 20 mg/ml.

The text below walks through data of US20200352854A1, “DEVICES AND METHODS FOR PREVENTING AND INHIBITING PERIODONTAL DISEASE” (Fixed Focus LLC, priority 2019, published 2020).

In the case of oat beta glucan, the solubility (usually how much of the substance goes into solution per volume) came to 20 mg/mL. In the case of hydroxymethylcellulose, the solubility was determined as 10 mg/mL.
